{
  "source": "patent US8722665B2",
  "about": "“Cinnamido-pyrrolo[2,1-C][1,4]benzodiazepines as potential anticancer agents and process for the preparation thereof” (Council of Scientific & Industrial Research, priority 2008, dated 2014)",
  "tested_on": "duplex-form calf thymus DNA (CT-DNA)",
  "assay": "Thermal denaturation studies with calf thymus DNA",
  "format": "binding",
  "settings": "[PBD]:[DNA] molar ratio 1:5, CT-DNA 100 μM, ligand 20 μM, pH 7.00",
  "procedure": "Compounds have been subjected to thermal denaturation studies with duplex-form calf thymus DNA (CT-DNA) using an modification of a reported procedure (Newman, M. S. Carcinog-compr. Surv. 1976, 1, 203; (b) Hecht, S. S.; Loy, M.; Hoffman, Carcinog-compr. Surv. 1976, 1, 325). Working solutions in aqueous buffer (10 mM NaH2PO4/Na2HPO4, 1 mM Na2EDTA, pH 7.00+0.01) containing CT-DNA (100 μm in phosphate) and the PBD (20 μm) have been prepared by addition of concentrated PBD solutions in DMSO to obtain a fixed [PBD]/[DNA] molar ratio of 1:5. The DNA-PBD solutions have been incubated at 37° C. for 0 and 18 h prior to analysis. Samples have been monitored at 260 nm using a Beckman DU-800 spectrophotometer fitted with high performance temperature controller, and heated at 1° C. min^−1 in the 40-110° C. range. DNA helix→coil transition temperatures (Tm) have been obtained from the maxima in the d(A260)/dT derivative plots. Drug-induced alterations in DNA melting behavior are given by: ΔTm=Tm(DNA+PBD)−Tm(DNA alone), where the Tm value for the PBD-free CT-DNA is 69.1±0.01.\nThe DNA binding activity for these Cinnamido-pyrrolo[2,1-c][1,4]benzodiazepines have been examined by thermal denaturation studies using calf thymus (CT) DNA. […] The data for the compounds 8b&d, 11b&d, 14b&d and 17b&d is included in Table 1 for comparison.",
  "data": [
    {"smiles": "COc1cc(/C=C/C(=O)N2CCN(C(=O)c3cc(OC)c(OC)c(OC)c3)CC2)ccc1OCCCOc1cc2c(cc1OC)C(=O)N1CCC[C@H]1C=N2", "note": "[8b, 7-methoxy-8-{3-(2-methoxy-4-(E)-3-oxo-3-[4-(3,4,5-trimethoxybenzoyl)piperazino]-1-propenylphenoxy)propoxy}-(11aS)-2,3,5,11^a-tetrahydro-5H-pyrrolo[2,1-c][1,4]benzo-diazepine-5-one]", "values": [
      {"measurement": "(ΔTm ° C.) after incubation at 37° C. for 0 h", "setting": "0 h incubation at 37° C.", "result": 1.2, "unit": "°C"},
      {"measurement": "(ΔTm ° C.) after incubation at 37° C. for 18 h", "setting": "18 h incubation at 37° C.", "result": 2.1, "unit": "°C"}
    ]}
  ]
}
